The assay deals with T1, TG2 in tissue sections (Mus musculus, UniProt P21981).
T1 construct: from tissue; host or cells: mouse small intestine cryosections (mucosa)
T1 sequence (P21981 1-686): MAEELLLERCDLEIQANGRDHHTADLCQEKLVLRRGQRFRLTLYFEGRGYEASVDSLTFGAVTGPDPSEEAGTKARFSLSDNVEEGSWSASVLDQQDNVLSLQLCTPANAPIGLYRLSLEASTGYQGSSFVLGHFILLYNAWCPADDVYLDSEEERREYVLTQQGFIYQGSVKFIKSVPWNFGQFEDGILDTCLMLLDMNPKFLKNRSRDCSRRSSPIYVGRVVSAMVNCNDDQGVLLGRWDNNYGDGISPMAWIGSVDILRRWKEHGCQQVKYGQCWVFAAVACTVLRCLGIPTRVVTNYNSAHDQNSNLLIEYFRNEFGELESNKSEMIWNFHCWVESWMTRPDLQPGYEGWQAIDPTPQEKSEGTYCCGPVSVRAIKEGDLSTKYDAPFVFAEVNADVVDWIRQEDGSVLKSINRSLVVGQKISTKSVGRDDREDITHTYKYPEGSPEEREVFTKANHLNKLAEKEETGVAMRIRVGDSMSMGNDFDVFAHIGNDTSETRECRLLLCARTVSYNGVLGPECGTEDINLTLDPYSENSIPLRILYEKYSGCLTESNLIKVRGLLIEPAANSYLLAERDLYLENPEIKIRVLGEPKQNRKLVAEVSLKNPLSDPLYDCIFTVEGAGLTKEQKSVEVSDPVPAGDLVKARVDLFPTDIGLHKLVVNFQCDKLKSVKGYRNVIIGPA
The experiment in a line: Ex vivo testing of inhibitors on small intestine sections of a control mouse. The conditions noted are these: pre-incubated with 0.2 mg/ml and 0.02 mg/ml inhibitor. How it is done:
After a washing step (1% BSA in PBS buffer), incubation was carried out with 4 μg/ml of the TG2 substrate biotinyl-TVQQEL (Zedira, product number B001) in the presence of 5 mM CaCl2 for 2 h at room temperature. The reaction was stopped with 25 mM EDTA. After one further washing, blocking, and washing step, the primary antibody against human TG2 was added (Zedira, product number A018, 25 μg/ml) and incubated for one hour at room temperature. After four wash steps, streptavidin-FITC (2 μg/ml, streptavidin-fluorescein-isothiocyanate) and Cy3-labeled goat anti-rabbit IgG antibodies (22.5 μg/ml) were added and incubated in the dark at room temperature for 40 min. TG2 was thus visible in the fluorescence microscope as red color (Cy3), whereas biotinyl-TVQQEL incorporated by transglutaminase activity was visualized by green staining (FITC). The superposition of both images led to a yellow color when active transglutaminase was present.
[…] Then the staining protocol as described in example 10 was carried out. In the control sections with 0.0 mg/ml inhibitor yellow staining in the mucosa of the small intestinal was detected, which is due to active TG2.

With `CCC(CC)CNC(=O)Cn1cccc(NC(=O)[C@H](CC/C=C/C(=O)OC)NC(=O)c2cncn2C)c1=O` [A63, (S,E)-Methyl 7-(1-(2-(2-ethylbutylamino)-2-oxoethyl)-2-oxo-1,2-dihydropyridin-3-ylamino)-6-(1-methyl-1H-imidazole-5-carboxamido)-7-oxohept-2-enoate], the “TG2 inhibition in sections at the higher concentrations of inhibitor” value is on record as “completely inhibited”.
The same measure for `CC[C@@H](C)[C@H](NC(=O)Cn1cccc(NC(=O)[C@H](CC/C=C/C(=O)OC)NC(=O)c2ccccc2)c1=O)C(=O)O` [A61, (2S,3R)-2-(2-(3-((S,E)-2-benzamido-7-methoxy-7-oxohept-5-enamido)-2-oxopyridin-1(2H)-yl)acetamido)-3-methylpentanoic acid]: “completely inhibited”.

These data come from patent US9434763B2, “Derivatives of pyridinone as inhibitors for tissue transglutaminase” (ZEDIRA GMBH, priority 2012, dated 2016).
